Test results as given in patent publication US20250171437A1 (Agios Pharmaceuticals,Inc., priority 2022, published 2025).

What follows are compounds tested against T1, human PAH with the R408W mutation (A375 R408W cells) (Homo sapiens, UniProt P00439, R408W) (assay: Cell Based Phenylalanine Flux Assay). Settings: A375 R408W cells; 24 hrs with compound, then 20 μM sepiapterin and 800 μM 13C9,15N-Phenylalanine for 4 hours; 13C-Tyrosine by LC-MS; average where tested multiple times.
T1 construct: expressed in transfected cells
T1 sequence (P00439 1-452 R408W): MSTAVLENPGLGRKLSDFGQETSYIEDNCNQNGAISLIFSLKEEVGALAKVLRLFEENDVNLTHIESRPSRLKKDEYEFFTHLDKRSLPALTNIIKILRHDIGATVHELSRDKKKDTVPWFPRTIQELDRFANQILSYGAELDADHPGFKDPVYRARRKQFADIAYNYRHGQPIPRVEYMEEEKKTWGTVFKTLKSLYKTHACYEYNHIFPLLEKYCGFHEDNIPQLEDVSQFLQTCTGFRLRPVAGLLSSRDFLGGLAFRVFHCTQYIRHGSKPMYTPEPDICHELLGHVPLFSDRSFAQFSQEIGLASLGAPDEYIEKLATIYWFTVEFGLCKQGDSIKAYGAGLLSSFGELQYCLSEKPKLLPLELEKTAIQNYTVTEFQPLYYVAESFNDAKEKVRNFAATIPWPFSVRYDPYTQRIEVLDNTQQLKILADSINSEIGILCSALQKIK
Procedure, shortened: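 A375 cells stably expressing lentiviral human PAH R408W were treated with compounds (10-point 2-fold dilutions, 0.5% DMSO, duplicate) for 24 h at 37 °C. Then 20 μM sepiapterin and 800 μM 13C9,15N-Phe were added for 4 h; media 13C-Tyr was measured by LC-MS to give AC50.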

Q: Which AC50 does the source give for `O=C(c1nnc(-c2ccccn2)o1)N1CCc2[nH]cnc2[C@H]1c1nc2c(F)ccc(F)c2o1` [Example 520, (S)-(4-(4,7-difluorobenzo[d]oxazol-2-yl)-6,7-dihydro-1H-imidazo[4,5-c]pyridin-5(4H)-yl)(5-(pyridin-2-yl)-1,3,4-oxadiazol-2-yl)methanone] here?
A: The AC50 was ≤ 0.5 µM.

Q: `O=C(c1nnc(-c2ncccc2F)o1)N1CCc2[nH]cnc2[C@@H]1c1nc2c(F)ccc(F)c2o1` [Example 799, (R)-(4-(4,7-difluorobenzo[d]oxazol-2-yl)-6,7-dihydro-1H-imidazo[4,5-c]pyridin-5(4H)-yl)(5-(3-fluoropyridin-2-yl)-1,3,4-oxadiazol-2-yl)methanone] was tested. Which AC50 did it give?
A: The AC50 was 0.5 to 1 µM.

Q: How did the AC50 turn out when `O=C(CC1CC1)N1CCc2[nH]cnc2[C@@H]1c1nc2cc(F)ccc2o1` [Example 38, (R)-2-cyclopropyl-1-(4-(5-fluorobenzo[d]oxazol-2-yl)-6,7-dihydro-1H-imidazo[4,5-c]pyridin-5(4H)-yl)ethanone] was run?
A: Its AC50 is 1 to 5 µM.

Q: `Cn1cc(-c2nnc(C(=O)N3CCc4[nH]cnc4[C@H]3c3nc4ccccc4o3)o2)cn1` [Example 581, (S)-(4-(benzo[d]oxazol-2-yl)-6,7-dihydro-1H-imidazo[4,5-c]pyridin-5(4H)-yl)(5-(1-methyl-1H-pyrazol-4-yl)-1,3,4-oxadiazol-2-yl)methanone] was tested. Which AC50 did it give?
A: The AC50 was ≤ 0.5 µM.

Q: For `Cc1ccc(F)c2nc([C@H]3c4nc[nH]c4CCN3C(=O)c3oc(C(C)(C)O)nc3C(F)F)oc12` [Example 724, (R)-(4-(difluoromethyl)-2-(2-hydroxypropan-2-yl)oxazol-5-yl)(4-(4-fluoro-7-methylbenzo[d]oxazol-2-yl)-6,7-dihydro-1H-imidazo[4,5-c]pyridin-5(4H)-yl)methanone], which AC50 is on record?
A: Its AC50 is 1 to 5 µM.

Q: `Cn1ccc(-c2nnc(C(=O)N3CCc4[nH]cnc4[C@@H]3c3nc4cc(F)ccc4o3)o2)n1` [Example 105, (R)-(4-(5-fluorobenzo[d]oxazol-2-yl)-6,7-dihydro-1H-imidazo[4,5-c]pyridin-5(4H)-yl)(5-(1-methyl-1H-pyrazol-3-yl)-1,3,4-oxadiazol-2-yl)methanone] was tested. Which AC50 did it give?
A: Its AC50 is 1 to 5 µM.

Q: How did the AC50 turn out when `Cc1cccc2oc([C@H]3c4nc[nH]c4CCN3C(=O)c3nnc(-c4cnn(C)c4)o3)nc12` [Example 479, (R)-(5-(1-methyl-1H-pyrazol-4-yl)-1,3,4-oxadiazol-2-yl)(4-(4-methylbenzo[d]oxazol-2-yl)-6,7-dihydro-1H-imidazo[4,5-c]pyridin-5(4H)-yl)methanone] was run?
A: The AC50 was 0.5 to 1 µM.

Q: How did the AC50 turn out when `COc1cccc2nc([C@@H]3c4nc[nH]c4CCN3C(=O)c3ncnn3C)oc12` [Example 775, (S)-(4-(7-methoxybenzo[d]oxazol-2-yl)-6,7-dihydro-1H-imidazo[4,5-c]pyridin-5(4H)-yl)(1-methyl-1H-1,2,4-triazol-5-yl)methanone] was run?
A: Its AC50 is 0.5 to 1 µM.

Q: Which AC50 does the source give for `O=C(c1oc(C2(O)CCC2)nc1C(F)(F)F)N1CCc2[nH]cnc2[C@H]1c1nc2cc(F)ccc2o1` [Example 585, (S)-(4-(5-fluorobenzo[d]oxazol-2-yl)-6,7-dihydro-1H-imidazo[4,5-c]pyridin-5(4H)-yl)(2-(1-hydroxycyclobutyl)-4-(trifluoromethyl)oxazol-5-yl)methanone] here?
A: Its AC50 is ≤ 0.5 µM.

Q: How did the AC50 turn out when `Cc1nc(-c2ccn(C)n2)oc1C(=O)N1CCc2[nH]cnc2[C@@H]1c1nc2cc(F)ccc2o1` [Example 826, (R)-(4-(5-fluorobenzo[d]oxazol-2-yl)-6,7-dihydro-1H-imidazo[4,5-c]pyridin-5(4H)-yl)(4-methyl-2-(1-methyl-1H-pyrazol-3-yl)oxazol-5-yl)methanone] was run?
A: Its AC50 is ≥ 5 µM.

Q: For `CC(C)(O)c1nc(C(F)F)c(C(=O)N2CCc3[nH]cnc3[C@H]2c2nc3ccc(F)cc3o2)o1` [Example 187, (S)-(4-(difluoromethyl)-2-(2-hydroxypropan-2-yl)oxazol-5-yl)(4-(6-fluorobenzo[d]oxazol-2-yl)-6,7-dihydro-1H-imidazo[4,5-c]pyridin-5(4H)-yl)methanone], which AC50 is on record?
A: Its AC50 is ≤ 0.5 µM.

Q: With `Cc1cccc2nc([C@H]3c4nc[nH]c4CCN3C(=O)c3nnc(-c4ccn(C)n4)o3)oc12` [Example 870, (R)-(5-(1-methyl-1H-pyrazol-3-yl)-1,3,4-oxadiazol-2-yl)(4-(7-methylbenzo[d]oxazol-2-yl)-6,7-dihydro-1H-imidazo[4,5-c]pyridin-5(4H)-yl)methanone] as the compound, how does the AC50 read?
A: The AC50 was 1 to 5 µM.

Q: How did the AC50 turn out when `O=C(c1oc(-c2cnccn2)nc1C(F)F)N1CCc2[nH]cnc2[C@H]1c1nc2cc(F)ccc2o1` [Example 527, (S)-(4-(difluoromethyl)-2-(pyrazin-2-yl)oxazol-5-yl)(4-(5-fluorobenzo[d]oxazol-2-yl)-6,7-dihydro-1H-imidazo[4,5-c]pyridin-5(4H)-yl)methanone] was run?
A: The AC50 was ≤ 0.5 µM.

Q: `Cc1ccc2nc([C@H]3c4nc[nH]c4CCN3C(=O)c3ocnc3C(F)(F)F)oc2c1` [Example 58, (R)-(4-(6-methylbenzo[d]oxazol-2-yl)-6,7-dihydro-1H-imidazo[4,5-c]pyridin-5(4H)-yl)(4-(trifluoromethyl)oxazol-5-yl)methanone] was tested. Which AC50 did it give?
A: The AC50 was ≤ 0.5 µM.

Q: For `O=C(c1oc(-c2ccccn2)nc1C(F)F)N1CCc2[nH]cnc2[C@H]1c1nc2cc(F)ccc2o1` [Example 85, (S)-(4-(difluoromethyl)-2-(pyridin-2-yl)oxazol-5-yl)(4-(5-fluorobenzo[d]oxazol-2-yl)-6,7-dihydro-1H-imidazo[4,5-c]pyridin-5(4H)-yl)methanone], which AC50 is on record?
A: The AC50 was ≤ 0.5 µM.

Q: Which AC50 does the source give for `O=C(c1ccnn1C(F)F)N1CCc2[nH]cnc2[C@H]1c1nc2ccc(F)cc2o1` [Example 189, (S)-(1-(difluoromethyl)-1H-pyrazol-5-yl)(4-(6-fluorobenzo[d]oxazol-2-yl)-6,7-dihydro-1H-imidazo[4,5-c]pyridin-5(4H)-yl)methanone] here?
A: Its AC50 is 0.5 to 1 µM.

Q: For `O=C(c1ocnc1C(F)F)N1CCc2[nH]cnc2[C@@H]1c1nc2cccc(F)c2o1` [Example 174, (R)-(4-(difluoromethyl)oxazol-5-yl)(4-(7-fluorobenzo[d]oxazol-2-yl)-6,7-dihydro-1H-imidazo[4,5-c]pyridin-5(4H)-yl)methanone], which AC50 is on record?
A: The AC50 was ≤ 0.5 µM.

Q: Which AC50 does the source give for `Cc1ccc2nc([C@H]3c4nc[nH]c4CCN3C(=O)c3oc(C(C)(C)O)nc3Br)oc2c1` [Example 440, (R)-(4-bromo-2-(2-hydroxypropan-2-yl)oxazol-5-yl)(4-(6-methylbenzo[d]oxazol-2-yl)-6,7-dihydro-1H-imidazo[4,5-c]pyridin-5(4H)-yl)methanone] here?
A: Its AC50 is 1 to 5 µM.

Q: With `Cn1cnc(-c2nc(C(F)F)c(C(=O)N3CCc4[nH]cnc4[C@H]3c3nc4cc(F)ccc4o3)o2)c1` [Example 641, (S)-(4-(difluoromethyl)-2-(1-methyl-1H-imidazol-4-yl)oxazol-5-yl)(4-(5-fluorobenzo[d]oxazol-2-yl)-6,7-dihydro-1H-imidazo[4,5-c]pyridin-5(4H)-yl)methanone] as the compound, how does the AC50 read?
A: Its AC50 is ≤ 0.5 µM.

Q: For `CC(C)(O)c1nc(C(F)F)c(C(=O)N2CCc3[nH]cnc3[C@H]2c2nc3c(F)c(F)ccc3o2)o1` [Example 347, (S)-(4-(4,5-difluorobenzo[d]oxazol-2-yl)-6,7-dihydro-1H-imidazo[4,5-c]pyridin-5(4H)-yl)(4-(difluoromethyl)-2-(2-hydroxypropan-2-yl)oxazol-5-yl)methanone], which AC50 is on record?
A: The AC50 was 0.5 to 1 µM.

Q: Which AC50 does the source give for `Cn1nc(C(F)F)nc1C(=O)N1CCc2[nH]cnc2[C@@H]1c1nc2cccc(F)c2o1` [Example 286, (R)-(3-(difluoromethyl)-1-methyl-1H-1,2,4-triazol-5-yl)(4-(7-fluorobenzo[d]oxazol-2-yl)-6,7-dihydro-1H-imidazo[4,5-c]pyridin-5(4H)-yl)methanone] here?
A: Its AC50 is 1 to 5 µM.

Same assay, conditions: A375 cells expressing R408W PAH; 24 hrs with compound, then 20 μM sepiapterin and 800 μM 13C9,15N-Phenylalanine for 4 hours; 13C-Tyrosine by LC-MS; average where tested multiple times

Q: With `O=C(c1cnn2cc(N3CCC(F)CC3)ccc12)N1CCc2[nH]cnc2C1c1nc2cc(F)ccc2o1` (stereo not shown) as the compound, how does the AC50 read?
A: Its AC50 is 1 to 5 µM.

Q: With `NCc1ccc2c(C(=O)N3CCc4[nH]cnc4C3c3nc4cc(F)ccc4o3)cnn2c1` (stereo not shown) as the compound, how does the AC50 read?
A: Its AC50 is ≥ 5 µM.

Q: For `O=C(c1nncn1C1CC1)N1CCc2[nH]cnc2C1c1nc2cccc(F)c2o1` (stereo not shown), which AC50 is on record?
A: Its AC50 is 1 to 5 µM.

Q: `CCOC(=O)N1CCN(c2ccc3c(C(=O)N4CCc5[nH]cnc5C4c4nc5cc(F)ccc5o4)cnn3c2)CC1` (stereo not shown) was tested. Which AC50 did it give?
A: The AC50 was 1 to 5 µM.

Q: Which AC50 does the source give for `CNc1ccc2c(C(=O)N3CCc4[nH]cnc4C3c3nc4cc(F)ccc4o3)cnn2c1` (stereo not shown) here?
A: Its AC50 is ≥ 5 µM.

Q: `O=C(c1cn(-c2ccccn2)nc1Cl)N1CCc2[nH]cnc2[C@@H]1c1nc2cc(F)ccc2o1` (single isomer, unassigned) was tested. Which AC50 did it give?
A: The AC50 was ≥ 5 µM.

Q: `O=C(CCc1cncs1)N1CCc2[nH]cnc2C1c1nc2ccc(F)cc2o1` (stereo not shown) was tested. Which AC50 did it give?
A: Its AC50 is 1 to 5 µM.

Q: With `Cc1ccc2nc(C3c4nc[nH]c4CCN3C(=O)c3nnc(-c4ccc(F)cn4)o3)oc2c1` (stereo not shown) as the compound, how does the AC50 read?
A: The AC50 was 1 to 5 µM.

Q: `O=C(c1nnc(-c2cnn(S(=O)(=O)C3CC3)c2)o1)N1CCc2[nH]cnc2C1c1nc2cc(F)ccc2o1` (stereo not shown) was tested. Which AC50 did it give?
A: The AC50 was 1 to 5 µM.

Q: How did the AC50 turn out when `O=C(c1cnn2cc(CN3CCC(F)(F)C3)ccc12)N1CCc2[nH]cnc2[C@H]1c1nc2cc(F)ccc2o1` (single isomer, unassigned) was run?
A: The AC50 was 1 to 5 µM.

Q: How did the AC50 turn out when `O=C(c1nnc(-c2cnn(C(F)F)c2)o1)N1CCc2[nH]cnc2C1c1nc2cc(F)ccc2o1` (stereo not shown) was run?
A: Its AC50 is 1 to 5 µM.

Q: For `CC(C)(O)c1nc(C(=O)N2CCc3[nH]cnc3C2c2nc3ccc(F)cc3o2)no1` (stereo not shown), which AC50 is on record?
A: The AC50 was ≥ 5 µM.

Q: `O=C(CCc1nccs1)N1CCc2[nH]cnc2C1c1nc2cc(F)ccc2o1` (stereo not shown) was tested. Which AC50 did it give?
A: Its AC50 is 1 to 5 µM.
